According to the Deep4Chem optical property database:

Assay: photoluminescence quantum yield (fraction); solvent given as SMILES

SMILES: COCCC1(CCOC)c2cc(-c3ccc(OC)cc3)ccc2-c2ccc(-c3ccc(OC)cc3)cc21
- photoluminescence quantum yield (in C1CCCCC1): 0.61

SMILES: C=CCNc1ccc2ccc3oc4cc(=[N+]5CCCC5)ccc-4nc3c2c1
- photoluminescence quantum yield (in CC#N): 0.1
- photoluminescence quantum yield (in CCO): 0.04
- photoluminescence quantum yield (in ClCCl): 0.13
- photoluminescence quantum yield (in O): 0.006

SMILES: CC(C)C1=c2c(c3[nH]cc(C(C)C)c3c3ccccc23)=[N+]2C1=Cc1c(C(C)C)c3c4ccccc4c4c(C(C)C)c[nH]c4c3n1[B-]2(F)F
- photoluminescence quantum yield (in ClC(Cl)Cl): 0.63

SMILES: C(=C\c1ncnc2ccccc12)/c1ccc(-c2ccc(N(c3ccccc3)c3ccccc3)cc2)cc1
- photoluminescence quantum yield (in ClCCl): 0.23

SMILES: COc1ccc(C#CC2=C3CCc4ccccc4C3=[O+][B-](F)(F)O2)cc1
- photoluminescence quantum yield (in ClCCl): 0.145

SMILES: COc1ccc(N(c2ccccc2)c2ccccc2)cc1
- photoluminescence quantum yield (in Cc1ccccc1): 0.03

SMILES: Oc1ccc2ccccc2c1/C=N/c1cc2ccccc2cc1/N=C/c1c(O)ccc2ccccc12
- photoluminescence quantum yield (in CC#N): 0.042

SMILES: CC(C)Oc1ccc(C#Cc2cc3ccccc3oc2=O)cc1
- photoluminescence quantum yield (in CC#N): 0.43

SMILES: Cc1ccc(C)n1-c1ccc(N(C)C)cc1
- photoluminescence quantum yield (in CC#N): 0.27
- photoluminescence quantum yield (in CCCCCC): 0.11

SMILES: CC1(C)c2ccccc2N(c2ccc3c(c2)Oc2ccccc2P3(=O)c2ccccc2)c2ccccc21 (stereo not drawn)
- photoluminescence quantum yield (in Cc1ccccc1): 0.37
- photoluminescence quantum yield (in O=P(c1ccccc1)(c1ccccc1)c1ccccc1Oc1ccccc1P(=O)(c1ccccc1)c1ccccc1): 0.62

SMILES: c1csc(-c2cnc(-c3cccs3)c3nonc23)c1
- photoluminescence quantum yield (in C1CCCCC1): 0.54
- photoluminescence quantum yield (in CC(C)=O): 0.39
- photoluminescence quantum yield (in CCCCCC): 0.54
- photoluminescence quantum yield (in CCCO): 0.22
- photoluminescence quantum yield (in CCO): 0.19
- photoluminescence quantum yield (in CCOCC): 0.52
- photoluminescence quantum yield (in CO): 0.15
- photoluminescence quantum yield (in Cc1ccccc1): 0.35
- photoluminescence quantum yield (in ClC(Cl)(Cl)Cl): 0.43
- photoluminescence quantum yield (in ClC(Cl)Cl): 0.35
- photoluminescence quantum yield (in O=[N+]([O-])c1ccccc1): 0.2
- photoluminescence quantum yield (in OCC(O)CO): 0.03
- photoluminescence quantum yield (in OCc1ccccc1): 0.12
- photoluminescence quantum yield (in c1ccc2ncccc2c1): 0.25
- photoluminescence quantum yield (in c1ccccc1): 0.4
- photoluminescence quantum yield (in c1ccncc1): 0.23

SMILES: ClP1(Cl)=NP(Cl)(Cl)=NP(Cl)(Oc2ccc3ccc4cccc5ccc2c3c45)=N1 (stereo not drawn)
- photoluminescence quantum yield (in ClCCl): 0.55

SMILES: C1=Cc2ccccc2C(=Cc2ccc(-c3cc(-c4ccc(C=C5c6ccccc6C=Cc6ccccc65)cc4)cc(-c4ccc(C=C5c6ccccc6C=Cc6ccccc65)cc4)c3)cc2)c2ccccc21
- photoluminescence quantum yield (in C1CCOC1): 0.0023

SMILES: CC(C)[Si](C#Cc1c2ccc(C(C)(C)C)cc2c(C#C[Si](C(C)C)(C(C)C)C(C)C)c2ccc(C(C)(C)C)cc12)(C(C)C)C(C)C
- photoluminescence quantum yield (in Cc1ccccc1): 0.92

SMILES: CC(C)(C)c1ccc2ccc3cc(-c4ccc5c(-c6ccc7c(ccc8ccc(C(C)(C)C)cc87)c6)cc6c7cc(-c8ccc9c(ccc%10ccc(C(C)(C)C)cc%109)c8)ccc7c(-c7ccc8c(ccc9ccc(C(C)(C)C)cc98)c7)cc6c5c4)ccc3c2c1
- photoluminescence quantum yield (in ClCCl): 0.781

SMILES: CCCCn1c2ccccc2c2ccc(C#Cc3ccc4ccc5cccc6ccc3c4c56)cc21
- photoluminescence quantum yield (in ClCCl): 0.62

SMILES: COc1cc(OC)c2c(c1)c1cc3oc(=O)cc(C)c3cc1c1cc(OC)cc(OC)c12
- photoluminescence quantum yield (in ClC(Cl)Cl): 0.1

SMILES: N#Cc1c(-n2c3ccccc3c3cc(Br)ccc32)c(-n2c3ccccc3c3cc(Br)ccc32)c(C#N)c(-n2c3ccccc3c3cc(Br)ccc32)c1-n1c2ccccc2c2cc(Br)ccc21
- photoluminescence quantum yield (in Cc1ccccc1): 0.53

SMILES: O[Si](c1c2ccccc2cc2ccccc12)(c1c2ccccc2cc2ccccc12)c1c2ccccc2cc2ccccc12
- photoluminescence quantum yield (in ClC(Cl)Cl): 0.015

SMILES: CN(C)c1ccc(-c2nc(-c3ccc(-n4c5ccccc5c5ccccc54)cc3)cc(-c3ccc(-n4c5ccccc5c5ccccc54)cc3)n2)cc1
- photoluminescence quantum yield (in C1CCOC1): 0.035
- photoluminescence quantum yield (in CN(C)C=O): 0.011
- photoluminescence quantum yield (in Cc1ccccc1): 0.07
- photoluminescence quantum yield (in ClC(Cl)Cl): 0.07

SMILES: CC1=CC(C)=[N+]2C1=C(c1ccc(I)cc1)c1c(C)cc(C)n1[B-]21OCCO1
- photoluminescence quantum yield (in ClC(Cl)Cl): 0.14

SMILES: CC[N+]1(CC)CN2C(=N1)C(C(=O)O)=Cc1c(OC)ccc(OC)c12
- photoluminescence quantum yield (in O): 0.018

SMILES: Cc1ccc(-c2[nH]c(=O)n3c2-c2ccccc2C3=O)c(O)c1
- photoluminescence quantum yield (in CC#N): 0.51
- photoluminescence quantum yield (in CO): 0.14
- photoluminescence quantum yield (in ClCCl): 0.63

SMILES: Nc1ccc2nc3c4ccccc4c(=[NH2+])cc-3oc2c1
- photoluminescence quantum yield (in CCO): 0.582

SMILES: Cn1c2ccc(S(=O)(=O)Cl)cc2c(=O)c2cc(S(=O)(=O)Cl)ccc21
- photoluminescence quantum yield (in CS(C)=O): 0.7

SMILES: COc1ccc(-c2cc(-c3ccc(N(C)C)cc3)nc(-c3ccccc3)n2)cc1
- photoluminescence quantum yield (in ClC(Cl)Cl): 0.49

SMILES: C(#Cc1ccc(-n2c3ccccc3c3ccccc32)cc1)c1ccccc1
- photoluminescence quantum yield (in ClCCl): 0.72

SMILES: c1ccc(-c2nc(-c3ccccc3)c(-c3ccccc3)o2)cc1
- photoluminescence quantum yield (in Cc1ccccc1): 0.36
